# Columns and labels:
# Staphylococcus aureus [1] = assay: In vitro inhibitory activity in iso sensitest agar against Staphylococcus aureus strain ATCC 29213; format: functional
# [2] = system: Staphylococcus intermedius; assay: In vitro inhibitory activity in iso sensitest agar against Staphylococcus intermedius strain ATCC 9503 in addition with 5%serum; format: functional
# Staphylococcus hyicus [3] = assay: In vitro inhibitory activity in iso sensitest agar against Staphylococcus hyicus strain ATCC 9622 in addition with 5%serum; format: functional
# [4] = system: Staphylococcus intermedius; assay: In vitro inhibitory activity in iso sensitest agar against Staphylococcus intermedius strain ATCC 9503; format: functional
# Staphylococcus aureus [5] = assay: In vitro inhibitory activity in iso sensitest agar against Staphylococcus aureus strain ATCC 25923; format: functional
# Staphylococcus hyicus [6] = assay: In vitro inhibitory activity in iso sensitest agar against Staphylococcus hyicus strain ATCC 9621; format: functional
# Staphylococcus hyicus [7] = assay: In vitro inhibitory activity in iso sensitest agar against Staphylococcus hyicus strain ATCC 9622; format: functional
# Staphylococcus aureus [8] = assay: In vitro inhibitory activity in iso sensitest agar against Staphylococcus aureus strain ATCC 25923 in addition with 5%serum; format: functional
# Staphylococcus aureus [9] = assay: In vitro inhibitory activity in iso sensitest agar against Staphylococcus aureus strain ATCC 6538; format: functional
# Staphylococcus aureus [10] = assay: In vitro inhibitory activity in iso sensitest agar against Staphylococcus aureus strain ATCC 6538 in addition with 5%serum; format: functional
# [11] = system: Staphylococcus intermedius; assay: In vitro inhibitory activity in iso sensitest agar against Staphylococcus intermedius strain ATCC 29663; format: functional
# [12] = system: Staphylococcus intermedius; assay: In vitro inhibitory activity in iso sensitest agar against Staphylococcus intermedius strain ATCC 29663 in addition with 5%serum; format: functional
# Staphylococcus aureus [13] = assay: In vitro inhibitory activity in iso sensitest agar against Staphylococcus aureus strain ATCC 29213 in addition with 5%serum; format: functional
# Staphylococcus hyicus [14] = assay: In vitro inhibitory activity in iso sensitest agar against Staphylococcus hyicus strain ATCC 9621 in addition with 5%serum; format: functional
# [15] = system: Staphylococcus intermedius; assay: In vitro inhibitory activity in iso sensitest agar against Staphylococcus intermedius strain ATCC 9503 in addition with 0.5%blood; format: functional
# Staphylococcus hyicus [16] = assay: In vitro inhibitory activity in iso sensitest agar against Staphylococcus hyicus strain ATCC 9621 in addition with 0.5%serum; format: functional
# Staphylococcus hyicus [17] = assay: In vitro inhibitory activity in iso sensitest agar against Staphylococcus hyicus strain ATCC 9621 in addition with 5%blood; format: functional
# [18] = system: Staphylococcus intermedius; assay: In vitro inhibitory activity in iso sensitest agar against Staphylococcus intermedius strain ATCC 9503 in addition with 5%blood; format: functional
# Staphylococcus aureus [19] = assay: In vitro inhibitory activity in iso sensitest agar against Staphylococcus aureus strain ATCC 6538 in addition with 0.5%serum; format: functional
# Staphylococcus hyicus [20] = assay: In vitro inhibitory activity in iso sensitest agar against Staphylococcus hyicus strain ATCC 9622 in addition with 5%blood; format: functional
# Staphylococcus aureus [21] = assay: In vitro inhibitory activity in iso sensitest agar against Staphylococcus aureus strain ATCC 6538 in addition with 0.5%blood; format: functional
# [22] = system: Staphylococcus intermedius; assay: In vitro inhibitory activity in iso sensitest agar against Staphylococcus intermedius strain ATCC 9503 in addition with 0.5%serum; format: functional
# Staphylococcus aureus [23] = assay: In vitro inhibitory activity in iso sensitest agar against Staphylococcus aureus strain ATCC 6538 in addition with 5%blood; format: functional
# Staphylococcus hyicus [24] = assay: In vitro inhibitory activity in iso sensitest agar against Staphylococcus hyicus strain ATCC 9621 in addition with 0.5%blood; format: functional
# Staphylococcus hyicus [25] = assay: In vitro inhibitory activity in iso sensitest agar against Staphylococcus hyicus strain ATCC 9622 in addition with 0.5%serum; format: functional
# Staphylococcus hyicus [26] = assay: In vitro inhibitory activity in iso sensitest agar against Staphylococcus hyicus strain ATCC 9622 in addition with 0.5%blood; format: functional
# Staphylococcus hyicus [27] = assay: In vitro minimum inhibitory concentration in iso sensitest agar against Staphylococcus hyicus strain ATCC 9622; format: functional
# Staphylococcus hyicus [28] = assay: In vitrIn vitro inhibitory activity in iso sensitest agar against Staphylococcus hyicus strain ATCC 9621; format: functional
# Staphylococcus aureus [29] = assay: In vitro inhibitory activity in iso sensitest agar against Staphylococcus aureus strain ATCC 6538 in addition with 5%serum
# Staphylococcus aureus [30] = assay: In vitro inhibitory activity in iso sensitest agar against Staphylococcus aureus strain ATCC 6538 in addition with 0.5%serum
# Staphylococcus aureus [31] = assay: In vitro inhibitory activity in iso sensitest agar against Staphylococcus aureus strain ATCC 6538 in addition with 5%blood
SMILES,MIC (Staphylococcus aureus [1]),MIC [2],MIC (Staphylococcus hyicus [3]),MIC [4],MIC (Staphylococcus aureus [5]),MIC (Staphylococcus hyicus [6]),MIC (Staphylococcus hyicus [7]),MIC (Staphylococcus aureus [8]),MIC (Staphylococcus aureus [9]),MIC (Staphylococcus aureus [10]),MIC [11],MIC [12],MIC (Staphylococcus aureus [13]),MIC (Staphylococcus hyicus [14]),further results
CC(C)CC(=O)C(=O)NCCc1cn(C)c2ccccc12,0.03 µg/mL,32 µg/mL,> 64 µg/mL,0.5 µg/mL,0.03 µg/mL,0.03 µg/mL,0.03 µg/mL,16 µg/mL,0.03 µg/mL,> 64 µg/mL,2 µg/mL,16 µg/mL,16 µg/mL,> 64 µg/mL,–
CC(C)CC(=O)C(=O)NCCc1cn(C(C)C)c2ccccc12,0.25 µg/mL,64 µg/mL,> 64 µg/mL,1 µg/mL,0.06 µg/mL,0.06 µg/mL,0.25 µg/mL,32 µg/mL,0.125 µg/mL,> 64 µg/mL,2 µg/mL,32 µg/mL,32 µg/mL,> 64 µg/mL,–
CCC(C)C(=O)C(=O)NC(C)Cc1c[nH]c2ccccc12 (configuration not stated),–,–,–,0.5 µg/mL,–,1 µg/mL,0.5 µg/mL,–,1 µg/mL,–,–,–,–,–,–
CCC(C)C(=O)C(=O)NCCc1c[nH]c2ccccc12 (configuration not stated),0.125 µg/mL,16 µg/mL,> 64 µg/mL,2 µg/mL,0.125 µg/mL,1 µg/mL,0.5 µg/mL,4 µg/mL,0.25 µg/mL,> 64 µg/mL,8 µg/mL,16 µg/mL,4 µg/mL,> 64 µg/mL,MIC [15]: 1 µg/mL; MIC (Staphylococcus hyicus [16]): > 128 µg/mL; MIC (Staphylococcus hyicus [17]): > 128 µg/mL; MIC [18]: > 128 µg/mL; MIC (Staphylococcus aureus [19]): > 128 µg/mL; MIC (Staphylococcus hyicus [20]): > 128 µg/mL; MIC (Staphylococcus aureus [21]): > 128 µg/mL; MIC [22]: 8 µg/mL; MIC (Staphylococcus aureus [23]): > 128 µg/mL; MIC (Staphylococcus hyicus [24]): 0.25 µg/mL; MIC (Staphylococcus hyicus [25]): 1 µg/mL; MIC (Staphylococcus hyicus [26]): 0.125 µg/mL
CCC(C)C(=O)C(=O)NCCc1cn(C(C)C)c2ccccc12 (configuration not stated),0.03 µg/mL,> 32 µg/mL,> 32 µg/mL,2 µg/mL,0.03 µg/mL,1 µg/mL,0.5 µg/mL,16 µg/mL,0.03 µg/mL,> 32 µg/mL,4 µg/mL,> 32 µg/mL,8 µg/mL,> 32 µg/mL,–
CC(C)CC(=O)C(=O)NCCc1cn(-c2ccccc2)c2ccccc12,0.06 µg/mL,> 64 µg/mL,> 64 µg/mL,0.125 µg/mL,0.06 µg/mL,–,–,> 64 µg/mL,0.03 µg/mL,> 64 µg/mL,1 µg/mL,> 64 µg/mL,> 64 µg/mL,> 64 µg/mL,MIC (Staphylococcus hyicus [27]): 0.015 µg/mL; MIC (Staphylococcus hyicus [28]): 0.06 µg/mL
CC(C)CC(=O)C(=O)NCCc1c[nH]c2ccccc12,0.25 µg/mL,–,–,1 µg/mL,0.25 µg/mL,0.25 µg/mL,0.03 µg/mL,–,0.125 µg/mL,–,2 µg/mL,–,–,–,–
CCC(C)C(=O)C(=O)NCCc1cn(C)c2ccccc12 (configuration not stated),0.015 µg/mL,–,> 32 µg/mL,0.5 µg/mL,0.015 µg/mL,0.06 µg/mL,0.06 µg/mL,16 µg/mL,0.015 µg/mL,> 32 µg/mL,2 µg/mL,32 µg/mL,16 µg/mL,> 32 µg/mL,MIC [15]: 0.06 µg/mL; MIC (Staphylococcus hyicus [16]): 0.25 µg/mL; MIC (Staphylococcus hyicus [17]): > 128 µg/mL; MIC (Staphylococcus aureus [19]): 0.25 µg/mL; MIC (Staphylococcus aureus [29]): > 32 µg/mL; MIC (Staphylococcus hyicus [20]): > 128 µg/mL; MIC (Staphylococcus aureus [21]): 0.06 µg/mL; MIC (Staphylococcus aureus [23]): > 128 µg/mL; MIC (Staphylococcus hyicus [24]): 0.03 µg/mL; MIC (Staphylococcus hyicus [25]): 0.125 µg/mL; MIC (Staphylococcus aureus [30]): 2 µg/mL; MIC (Staphylococcus aureus [31]): > 128 µg/mL; MIC (Staphylococcus hyicus [26]): 0.03 µg/mL
CCC(C)C(=O)C(=O)NCCc1cn(Cc2ccccc2)c2ccccc12 (configuration not stated),0.125 µg/mL,> 64 µg/mL,> 64 µg/mL,2 µg/mL,0.125 µg/mL,1 µg/mL,1 µg/mL,16 µg/mL,0.125 µg/mL,> 64 µg/mL,8 µg/mL,> 64 µg/mL,16 µg/mL,> 64 µg/mL,–
CC(C)CC(=O)C(=O)NCCc1cn(Cc2ccccc2)c2ccccc12,2 µg/mL,> 64 µg/mL,> 64 µg/mL,2 µg/mL,2 µg/mL,1 µg/mL,2 µg/mL,> 64 µg/mL,1 µg/mL,> 64 µg/mL,> 64 µg/mL,> 64 µg/mL,> 64 µg/mL,> 64 µg/mL,–

# Source: ChEMBL document CHEMBL1130913, “Synthesis and antibacterial in vitro activity of novel analogues of nematophin” (1998)
